The values that follow come from patent US20240390464A1, “Treatment of Adults With Overweight or Obesity With or Without Weight-Related Comorbidities” (Carmot Therapeutics Inc., priority 2023, published 2024).

Entries after “also recorded” stand apart in the source; their conditions may differ. Numbered stars: 1 amine (or outer) side, 2 acyl side, 3 side chain; on linkers, the order of the positions; unused ones are H or OH. Square brackets hold non-standard residues; d marks the D form. Side chains are listed from the residue outwards. Peptide text beside a SMILES is read from it. * marks the point of attachment. Isobutyryl(2-(3-CN-5-F-Ph)) = CC(C)(C(=O)*)c1cc(F)cc(C#N)c1; C20 diacid = O=C(O)CCCCCCCCCCCCCCCCCCC(=O)*; γGlu = O=C(O)[C@H](CCC(=O)[*:2])N[*:1]; AEEA = NCCOCCOCC(=O)O; Aib = CC(C)(N)C(=O)O; βAla = NCCC(=O)O

The series can be described thus: Phase 1 MD Cohorts 11 and 12: safety, tolerability, disposition. The class given is in vivo, human. As to the method: The primary objective of this study is to determine the safety and tolerability of CT-388 in participants with and without type 2 diabetes mellitus (T2DM) when administered once weekly over 12 consecutive weeks for Cohorts 11 and 14 with titrated dosing (and additionally, up to 24 weeks for Cohorts 12 and 13).
The cohorts in the MD QW study are as follows. • Cohort 11: Once weekly dose administered SC in the abdomen across 12 consecutive weeks with CT-388 or matched placebo doses of 5.0 mg administered for the first 3 weeks and then titrated to 8.0 mg for the duration of the treatment period. If a participant(s) experiences moderate to severe tolerability issues after the third dose of 5 mg, the same 5 mg dose may be continued for up to an additional 2 weeks, i.e., up-titration to 8 mg may be attempted after the fourth or fifth 5 mg dose. If participant(s) still unable to tolerate 8 mg by Day 36, then that participant(s) may continue at 5 mg for the remaining duration of the treatment period. • Cohorts 12 and 13: Once weekly dose administered SC in the abdomen titrated across 12 consecutive weeks with CT-388 or matched placebo doses of: • 5.0 mg at Day 1 and Day 8 • 8.0 mg at Day 15 and Day 22 • 12.0 mg (or 8.0 mg based on tolerability) at Day 29 and Day 36 • 17.0 mg (or 12.0 mg based on tolerability) at Day 43 and Day 50 • 22.0 mg (or 12.0 mg or 17.0 mg based on tolerability) at Day 57. • If at 22 mg on Day 57, continue that dose for the duration of the treatment period. • If at 12 mg or 17 mg on Day 57, titration to the corresponding next higher dose level may be attempted on a weekly basis based on the individual's tolerability (e.g., if on Day 57, 12 mg dose was administered and tolerated, on Day 64, dose of 17 mg may be attempted). • If not able to tolerate, continue at the previously tolerated dose level until the following week (e.g., to Day 71), at which point another attempt can be made to the next higher dose level. • Attempts to the next higher dose level can continue to be made until Day 78. The dose level achieved at Day 78 should be maintained for an additional 12 weeks of weekly dosing in the extension period, resulting in a cumulative of 24 weeks of total doses for participants in Cohorts 12 and 13. At any time during the extension period, if the maintenance dose is not tolerated, then that dose may be either lowered by one corresponding dose level (e.g., if at 22 mg, decrease to 17 mg; if at 17 mg decrease to 12 mg), and/or the dosing may be withheld for up to 2 weeks. Following this temporary dose adjustment/withholding period, attempt to titrate back up to the previous (higher) dose level should be made. […]

The mark [1] stands for this setting: Cohort 12, planned target 22 mg.

For `CC[C@H](C)[C@H](NC(=O)[C@H](CC(C)C)NC(=O)[C@H](Cc1c[nH]c2ccccc12)NC(=O)[C@H](CCC(N)=O)NC(=O)[C@@H](NC(=O)[C@H](Cc1ccccc1)NC(=O)[C@H](C)NC(=O)[C@H](CCCCNC(=O)COCCOCCNC(=O)COCCOCCNC(=O)CC[C@H](NC(=O)CCCCCCCCCCCCCCCCCCC(=O)O)C(=O)O)NC(=O)[C@H](CCC(N)=O)NC(=O)[C@H](C)NC(=O)[C@@H](NC(=O)[C@H](CCCCN)NC(=O)[C@H](CC(=O)O)NC(=O)[C@H](CC(C)C)NC(=O)C(C)(C)NC(=O)[C@@H](NC(=O)[C@H](CO)NC(=O)[C@H](Cc1ccc(O)cc1)NC(=O)[C@H](CC(=O)O)NC(=O)[C@H](CO)NC(=O)[C@@H](NC(=O)[C@H](Cc1ccccc1)NC(=O)[C@@H](NC(=O)CNC(=O)[C@H](CCC(=O)O)NC(=O)CCNC(=O)C(C)(C)c1cc(F)cc(C#N)c1)[C@@H](C)O)[C@@H](C)O)[C@@H](C)CC)[C@@H](C)CC)C(C)C)C(=O)N[C@@H](C)C(=O)NCC(=O)NCC(=O)N1CCC[C@H]1C(=O)N[C@@H](CO)C(=O)N[C@@H](CO)C(=O)NCC(=O)N[C@@H](C)C(=O)N1CCC[C@H]1C(=O)N1CCC[C@H]1C(=O)N1CCC[C@H]1C(=O)N[C@@H](CO)C(N)=O` [CT-388] ({Isobutyryl(2-(3-CN-5-F-Ph))-βAla}-EGTFTSDYSI[Aib]LDKIAQK([AEEA-AEEA-γGlu-C20 diacid])AFVQWLIAGGPSSGAPPPS-NH2), the “SAEs or severe treatment related GI-related AEs” value (CT-388 participants, up to 24 weeks) is on record as “No SAEs or severe treatment related GI-related AEs; also recorded: No SAEs or severe treatment related GI-related TEAE”. For the same compound, under setting [1], the “patients dosed per planned path and completed treatment on 22 mg” value is 75%; the “patients with dose down-titration who completed treatment on 12 mg” value came to 25%. Further, the safety and tolerability entry (up to 24 weeks of treatment, up to 22 mg SC QW) is “generally safe and well-tolerated”.
